Reference: US11857567B2, “Hypertonic pharmaceutical compositions containing an anti-platinum chemoprotectant agent” (Decibel Therapeutics, Inc., priority 2018, dated 2024)

System: cisplatin-induced hearing loss in guinea pigs
Assay: Hearing protection by locally delivered STS Composition from cisplatin challenge (ABR)
Type: in vivo, guinea pig
Conditions: at both 24 kHz and 32 kHz
Excerpt: Historical ABR data were used to define a baseline. The animals were anesthetized with tiletamine hydrochloride and zolazepam hydrochloride (Zoletil). Acoustic stimuli were delivered via an earphone. Needle electrodes were placed near the ear canal at the causoventral position, the vertex of the skull, and a ground at the lower leg. The stimulus level was from 10 to 90 dB in 5 dB steps, and the tone-pip frequencies were 4, 24, and 32 kHz. The ceiling sound pressure level was 90 dB. ABR threshold was observed by visual inspection of stacked waveforms as the lowest sound pressure level, at which the waveform was above the noise floor.
An aqueous composition of 0.5M sodium thiosulfate/2% (w/v) hyaluronan (STS Composition) or vehicle was dosed intratympanically onto the round window in the left ear (LE) as described above, and the right ear (RE) was left untreated in the guinea pigs (FIG. 5).
Because of heterogeneity of hearing loss after cisplatin challenge, the untreated right ears was used to select the animals with hearing loss. There were 21 animals with right ear threshold >60 dB at 32 kHz. Of these 21 animals, 3 with otitis media were excluded, leaving 18 animals for the final analysis. 10 animals were dosed with vehicle and 8 animals were dosed with STS Composition (FIG. 4B). […]

Question: How did the “protection (on average)” value turn out when `O=S([O-])([O-])=S.[Na+].[Na+]` [sodium thiosulfate] was run?
Answer: The value was 80%.
